According to patent publication US10156566B2, “Detoxification of microbial virulence factors in oral cavity” (priority 2015, dated 2018):
Several values for one entry are separate records, joined by “and”; a condition that tells them apart may be missing. Identical values can stand only once. Counter-ions that a name gives are not always drawn.

What was measured:
[1] = tested on: E. coli LPS; test: Displacement of LPS from binding to BODIPY TR cadaverine (Tables 3, 9, 12, 13); settings: E. coli LPS 15 μg/ml
[2] = tested on: Lipopolysaccharide

Row | Compound | inhibition [2] | other results
1 | 1,3-Diphenylacetone (1,3 diphenyl-2-propanone) |  | LPS displacement % Mean [1]: 11%; LPS displacement % Reading 1 [1]: 16%; LPS displacement % Reading 3 [1]: 5%
2 | CC(O)C(=O)[O-].CC(O)C(=O)[O-].[Zn+2] (racemic) [dl-lactic acid hemizinc salt] |  | LPS displacement % Mean [1]: 19%; LPS displacement % Reading 1 [1]: 15%; LPS displacement % Reading 3 [1]: 24%
3 | CCCCCCCCCC(=O)OC[C@H](COP(=O)([O-])OCC[N+](C)(C)C)OC(=O)CCCCCCCCC [1,2-Didecanoyl PC] | 67.9% | 
4 | CCCCCCCCCC(=O)OC[C@H](CO)OC(=O)CCCCCCCCC [1,2-Didecanoyl-sn-glycerol] | 47.4% | 
5 | CCCCCCCC(=O)OC[C@H](CO)OC(=O)CCCCCCC [1,2-Dioctanoyl-sn-glycerol] | 51.2% | 
6 | CCCCC/C=C\C/C=C\C/C=C\C/C=C\CCCC(=O)OCC(O)CO (centres unmarked) [1-Arachidonoyl Glycerol] | 41.8% | 
7 | CCCCCCCC/C=C\CCCCCCCC(=O)OC[C@H](CO)OC(C)=O [1-Oleoyl-2-acetyl-sn-glycerol] | 36.2% | 
8 | CCCCC/C=C\C/C=C\C/C=C\C/C=C\CCCC(=O)O[C@H](COC(=O)CCCCCCCCCCCCCCCCC)COP(=O)([O-])OCC[N+](C)(C)C [1-Stearoyl-2-Arachidonoyl PC] | 55% | 
9 | CCCCC/C=C\C/C=C\C/C=C\C/C=C\CCCCOC(CO)CO [2-Arachidonyl Glycerol ether] | 35% | 
10 | CC(C=O)Cc1ccc(C(C)C)cc1 (centres unmarked) [3-(4-Isopropylphenyl)-2-methylpropionaldehyde] |  | LPS displacement % Mean [1]: 39%; LPS displacement % Reading 1 [1]: 21%; LPS displacement % Reading 2 [1]: 29%; LPS displacement % Reading 3 [1]: 65%
11 | CCCCCCCCCCCC(=O)NCCCN(C)C [3-Dodecanamidopropyldimethylamine] |  | LPS displacement % Mean [1]: 79%; LPS displacement % Reading 1 [1]: 87%; LPS displacement % Reading 2 [1]: 62%; LPS displacement % Reading 3 [1]: 87%
12 | CC(C)CCC[C@@H](C)[C@H]1CC[C@H]2[C@@H]3CC(=O)[C@@]4(O)C[C@@H](O)CC[C@]4(C)[C@H]3CC[C@]12C [5α-hydroxy-6-keto Cholesterol] | 81.7% | 
13 | CCCCCCCC/C=C\CCCCCCCC(=O)OCCO [9-octadecenoic acid (z)-,2-hydroxyethyl ester] | 46% | 
14 | CCCCCCCCCCCC(=O)NCCCN(C)C [(Laurylamidopropyl)dimethyl amine] | 99.1% | 
15 | O=C1O/C(=C/Br)CC[C@@H]1c1cccc2ccccc12 [(R)-Bromoenol lactone] | 97.3% | 
16 | O=C1O/C(=C/Br)CC[C@H]1c1cccc2ccccc12 [(S)-Bromoenol lactone] | 95.2% | 
17 | CC/C=C\C/C=C\C/C=C\CCCCCCCC(=O)OCC [(z,z,z)-9,12,15-octadecatrienoic acid ethyl ester] | 34.9% | 
18 | CCCCC/C=C\C/C=C\C/C=C\C/C=C\CCCC(=O)Nc1ccc(O)cc1 [AM404] | 47.6% | 
19 | O=S(=O)(O)c1ccc(O)cc1 [Aluminum phenol sulfonate] | 27.4% | 
20 | CCCCC/C=C\C/C=C\C/C=C\C/C=C\CCCC(=O)NCCO [Anandamide (N-arachidonylethanol amide)] | 31.3% | 
21 | O=C1O/C(=C/Br)CCC1c1cccc2ccccc12 (centres unmarked) [Bromoenol lactone] | 99.7% | 
22 | CCCCCCCCCCCCC/C=C/[C@@H](O)[C@H](CO)NC(=O)CCCCC [C-6 Ceramide] | 48% | 
23 | CCCCCCCCCCCCC/C=C/[C@@H](O)[C@H](COP(=O)(O)O)NC(=O)CCCCCCC [C-8 Ceramide-1-phosphate] | 42.7% | 
24 | CCCCCCCCCCCCC/C=C/[C@@H](O)[C@H](CO)NC(=O)CCCCCCC [C-8 Ceramide] | 65.5% | 
25 | CCCCCCCCCCCCC/C=C/[C@@H](O)[C@H](CO)NCCCCCCCC [C-8 Ceramine] | 96.7% | 
26 | CCCCCCCCCCCCCCCC[N+](C)(C)C [Cetrimonium chloride] | 99.5% | 
27 | CCCCCCCCCCCCCCCC[N+](C)(C)C [Cetyltrimethylammonium bromide] | 99.5% | 

Row | Compound | inhibition [2] | other results
28 | COc1cc(/C=C/C(=O)CC(=O)/C=C/c2ccc(O)c(OC)c2)ccc1O [Curcumin] | 55.9% | 
29 | CCCCCCCCCCCCC/C=C/[C@@H](O)[C@@H](N)CO [D-erythro-Sphingosine C-18] | 63.8% | 
30 | CCCCCCCCCCCC[P+](c1ccccc1)(c1ccccc1)c1ccccc1 [DODECYLTRIPHENYLP[…], 98%, DODECYLTRIPHENYLP[…]] | 91.1% | 
31 | CCCCCCCCCC[N+](C)(C)CCCCCCCCCC [Didecyldimethylammounium chloride] | 97.5% | 
32 | CCCCCCCCCCCC(=O)NCCCN(C)C [Dimethylaminopropyllaurylamide] | 99.4% | 
33 | CCCCCCCCCCCCCCCC[N+](C)(C)Cc1ccccc1 [Dimethylbenzylcetylammonium chloride] | 95.5% | 
34 | CCCCCCCCCCCC[N+](C)(C)Cc1ccccc1 [Dimethyldodecylbenzylammonium bromide] | 98.1% | 
35 | CCCCCCCCCCCC[N+](C)(C)Cc1ccccc1 [Dimethyldodecylbenzylammonium chloride] | 98.2% | 
36 | CCCCCCCC[N+](C)(C)CCCCCCCC [Dioctyldimethylammonium chloride] | 93.3% | 
37 | CCCCCCCCCCCC(=O)NCCO [Dodecanamide MEA] | 44.3% | 
38 | CCCCCCCCCCCC[N+](C)(C)CCOc1ccccc1 [Domiphen bromide, reference compound] | 95.5% | 
39 | CC/C=C\C/C=C\C/C=C\C/C=C\C/C=C\CCCC(=O)O[C@H](COCCCCCCCCCCCCCCCC)COP(=O)([O-])OCC[N+](C)(C)C [Eicosapentaenoyl PAF C-16] | 82.7% | 
40 | CCCCCCCCc1ccc(CCC(N)(CO)CO)cc1 [FTY720, reference compound] | 79.1% | 
41 | CCCCCCCCCCCCCCCC(=O)NCCO [Hexadecanamide MEA] | 32.5% | 
42 | CCCCCCCCCCCCCCCCOC[C@H](CO)OC(C)=O [Hexadecyl Acetyl Glycerol] | 42% | 
43 | CCCCCCCCCCCCCCCCOCC(CO)OC (centres unmarked) [Hexadecyl Methyl Glycerol] | 40% | 
44 | CC(C)c1ccc2c(c1)c(SC(C)(C)C)c(CC(C)(C)C(=O)O)n2Cc1ccc(Cl)cc1 [MK 886 (sodium salt)] | 47.2% | 
45 | Cc1cc(C(C)(C)CC(C)(C)C)ccc1OCCOCC[N+](C)(C)Cc1ccccc1 [Methylbenzethonium chloride, reference compound] | 93% | 
46 | CCCCCCCCCCCCCCCCOC[C@H](COP(=O)([O-])OCC[N+](C)(C)C)OC(=O)NC [Methylcarbamyl PAF C-16] | 59.7% | 
47 | CCCCC/C=C\C/C=C\C/C=C\C/C=C\CCCC(=O)NCCc1ccc(O)c(O)c1 [N-Arachidonoyl Dopamine] | 49.1% | 
48 | CCCCCCCCCCCCCCCCCCCCCC(=O)NCCS(=O)(=O)O [N-Docosanoyl Taurine] | 85.2% | 
49 | CCCCCCCCCCCCN(CCO)CCO [N-Lauryldiethanolamine] | 99.6% and 100% | 
50 | CCCCCCCC/C=C\CCCCCCCCCCCCCC(=O)NCCS(=O)(=O)O [N-Nervonoyl Taurine] | 79.8% | 
51 | CCCCCCCCCCCCCCCC(=O)NCC(=O)O [N-Palmitoyl Glycine] | 85.8% | 
52 | CCCCCCCC/C=C\CCCCCCCC(=O)NCCO [Oleoylethanolamide] | 34.1% | 
53 | CCCCCCCC/C=C\CCCCCCCCN [Oleyl amine] | 99.6% | 
54 | CCCCCCCCCCCCCCCC(=O)OC[C@H](COP(=O)([O-])OCC[N+](C)(C)C)OC(=O)CCCCCCCC(=O)O [PAz-PC] | 72.8% | 

Row | Compound | inhibition [2] | other results
55 | CCCCCCCCCCCCCCCC(=O)OC[C@H](COP(=O)([O-])OCC[N+](C)(C)C)OC(=O)CCCC=O [POV-PC] | 48.7% | 
56 | CCCCCCCCCCCCCCCCCCN(CCO)CCO [STEARYLDIETHANOLAMINE] | 88.1% | 
57 | CCCCCCCCCCCCCCCCOS(=O)(=O)O [Sodium hexadecyl sulfate] | 89.4% | 
58 | CCCCCCCCCCCCCCCOS(=O)(=O)O [Sodium pentadecyl sulfate] | 86.6% | 
59 | CCCCCCCCCCCCCCCCCC[N+](C)(C)Cc1ccccc1 [Stearalkonium chloride] | 96.5% | 
60 | CCCCCCCCCCCCCCCCCC[N+](C)(C)C [Steartrimonium chloride] | 71.3% | 
61 | CCCCCCCCCCCCCS(=O)(=O)O [TRIDECYL SULFONIC ACID SODIUM SALT] | 95.6% | 
62 | CCCCCCCCCCCCCC[N+](C)(C)Cc1ccccc1 [Tetradecylbenzyldimethylammonium chloride] | 93.8% | 
63 | CC(C)=CCC/C(C)=C/CC/C(C)=C/CC[C@]1(C)CCc2c(C)c(O)c(C)c(C)c2O1 [alpha.-Tocotrienol] | 29.9% | 
64 | CCCCCCCC/C=C\CCCCCCCC(=O)OCCOCCO [diglycol monooleate] | 67% | 
65 | CCCCC/C=C\C/C=C\C/C=C\C/C=C\CCCC(=O)OCC [ethyl arachidonate] | 28.7% | 
66 | CCCCCC/C=C\CCCCCCCC(=O)OCC [ethyl cis-9-hexadecenoate] | 31.8% | 
67 | CCCCC/C=C\C/C=C\CCCCCCCC(N)=O [linoleamide] | 75.2% | 
68 | CCCCCCCCCCCCCCCC(=O)NCCO [palmitamide mea] | 13.2% | 
69 | CCCCC/C=C\C/C=C\CCCCCCCC(=O)O [potassium linoleate] | 98.9% | 
70 | CCCCCCCC/C=C\CCCCCCCC(=O)OCC(O)CO (stereo not drawn) [α-glyceryl monooloeate] | 49% | 
71 | CC/C=C\C/C=C\C/C=C\CCCCCCCC(=O)O [α-linoleic acid] | 97.9% | 
72 | CC/C=C\C/C=C\C/C=C\CCCCCCCC(=O)OC [α-linolenic acid methyl ester] | 24.9% | 
73 | CC(C)=CCC/C(C)=C/CC/C(C)=C/CC[C@]1(C)CCc2cc(O)c(C)c(C)c2O1 [γ-Tocotrienol] | 38.5% | 
74 | CC(C)=CCC/C(C)=C/CC/C(C)=C/CC[C@]1(C)CCc2cc(O)cc(C)c2O1 [δ-Tocotrienol] | 52.4% | 
75 | Benzalkonium chloride [reference compound] | 97.5% | 
76 | Laureth-6 | 100% | 
77 | Laureth-9 | 99.9% | 
78 | Octoxynol-9 | 9.83% | 
79 | Quaternium-17 | 100% | 
